Measured values taken from patent US12590131B2, “Antimicrobial peptides with alpha-core helices” (priority 2017, dated 2026).

Test system: panel of prototypic gram-positive (S. aureus), gram-negative (S. typhimurium, P. aeruginosa, A. baumannii) and fungal (C. albicans) pathogens
Assay: Radial diffusion assay for microbicidal activity, whole pathogen panel
Assay type: cell-based
Conditions: 10 μg peptide
Description: Select candidate microbicidal peptides were commercially synthesized by BioMatik (Biomatik USA, Wilmington, Delaware). Lyophilized peptides were reconstituted with ddIH20 and stored in aliquots at −20° C. LL-37 (Peptides International, Louisville, KY), a prototypic human AHAP, was used as a comparator in microbicidal assays.
Putative antimicrobial peptides were assayed for microbicidal activity using a well-established radial diffusion method modified to pH 5.5 or 7.5. A panel of microorganisms was tested: Gram-positive Staphylococcus aureus (ISP 479C, ISP 479R); Gram-negative Salmonella typhimurium (MS 5996s, MS 14028), Pseudomonas aeruginosa (PA01), Acinetobacter baumanni (19606) and the fungus Candida albicans (36082S, 36082R). Logarithmic phase organisms were inoculated (10^6 CFU/ml) into buffered agarose, and poured into plates. Peptides (10 μg) were introduced into wells in the seeded matrix, and incubated for 3 h at 37° C. Nutrient overlay medium was applied, and assays incubated at 37° C. or 30° C. for bacteria or fungi, respectively. After 24h, zones of inhibition were measured. Independent experiments were repeated a minimum of two times.

| Substance | relative potency at pH 7.5 versus pH 5.5 | microbicidal activity (zones of inhibition) (pH 7.5 and pH 5.5, FIG. 9) | microbicidal activity (zones of inhibition) (pH 5.5) | microbicidal activity (zones of inhibition) (pH 7.5) |
| --- | --- | --- | --- | --- |
| bIFN-γ (KAISELYNVITELSKSNSKMRKRRQNLFRGWKASK) | somewhat more potent at pH 7.5 than 5.5 | significant activity against most organisms |  |  |
| tIL-5 (KRFIEKLRTFLRKLSRGAK) |  | markedly potent against all organisms |  |  |
| hIFN-γ (AIHELIQVMAELSPAAKTGKRKRSQMLFRGRRASQ) | somewhat more potent at pH 7.5 than 5.5 | significant activity against most organisms |  |  |
| hIL7 (LCFLKRLLQEIKTCWNKILMGTKEH) |  |  | retained significant activity | somewhat less potent |
| hIL-13 (EVAQFVKDLLLHLKKLFREGRFN) |  |  | retained significant activity | somewhat less potent |
| hIL-21 (KEFLERFKSLLQKMIHQHLSSRTHGSEDS) |  |  | retained significant activity | somewhat less potent |
